# Experimental data reported in patent US20020107219A1, “Adenoviral vector containing cyclooxygenase-2 promoter and uses thereof” (priority 2000, published 2002).
# Type: in vivo, C57BL/6 mice
# From the text: To investigate the toxicity induced by the HSV-tk/GCV system, each group of ten C57BL/6 mice received a tail vein injection of AdCMV TK (10^9 pfu), Adcox2LTK (10^9 pfu) or phosphate-buffered saline on day 0. […] The mice were sacrificed on day 6 and the blood samples were collected to analyze total bilirubin, alanine aminotransferase (ALT), aspartate aminotransferase (AST) an d lactate dehydrogenase (LDH) at a veterinary laboratory (ANTECH Diagnostics, Farmingdale, N.Y.). For histopathological analysis, the major organs were fixed with 10% buffered formaldehyde, paraffin-embedded and cut in to 4 μm section, followed by deparaffinization and staining with hematoxylin and eosin.
smiles,measurement,setting,value
"Nc1nc(O)c2ncn(COC(CO)CO)c2n1 [GCV, ganciclovir]","serum samples (total bilirubin, ALT, AST, LDH)","only GCV, without virus",did not show abnormality
same,liver histology (H and E),without virus administration,appeared almost normal
